In article PMC7309225, “Synthesis, Biodistribution, and Radiation Dosimetry of a Novel mGluR5 Radioligand: ^18F-AZD9272” (ACS Chemical Neuroscience, 2020):

System: mGluR5
Assay: Brain PET in cynomolgus monkey (HRRT), VT by 2TC model and Logan GA
Format: in vivo
Protocol: Two male cynomolgus monkeys (NHP1: 5460 g and NHP2: 7080 g) were used in this study. […] Anesthesia was induced by intramuscular injection of ketamine hydrochloride (approximately 10 mg/kg) at AFL and maintained by intravenous infusion of ketamine (4 mg/kg/h) and xylazine (0.4 mg/kg/h) with a pump. The NHP head was immobilized with a fixation device. […] Heart rate, blood pressure, respiratory rate, and oxygen saturation were continuously monitored throughout the experiments. Fluid balance was maintained by continuous infusion of saline.
PET measurements were conducted using a High Resolution Research Tomograph (HRRT) PET scanner (Siemens Molecular Imaging, Knoxville, TN). […] List-mode data were reconstructed with a series of 34 frames (20 s × 9, 1 min × 3, 3 min × 5, and 6 min × 17), using the ordinary Poisson-3D-ordered subset expectation maximization (OP-3D-OSEM) algorithm with 10 iterations and 16 subsets including modeling of the point spread function (PSF).
An automated blood sampling system (ABSS) was used to measure the continuous radioactivity for the first 3 min after the radioligand injection. Then, blood sampling was performed manually for the measurement of metabolism and radioactivity at 5, 15, 30, 60, 90, and 120 min after the injection. A reversed-phase radio-HPLC method was used to determine the amount of unchanged ^18F-AZD9272 and its radioactive metabolites in NHP plasma.[35]
The regions of interest (ROIs) were delineated manually on the MRI images of each NHP for the anterior cingulate cortex, amygdala, caudate, cerebellum, hippocampus, insular cortex, occipital cortex, prefrontal cortex, putamen, temporal cortex, thalamus, ventral midbrain, and ventral striatum. The MRI of the individual NHP was co-registered to summed PET images of the whole measurement. By applying the co-registration parameters to ROIs, the time–activity curves of brain regions were generated from dynamic PET data.
As the main outcome measure, the total distribution volume (VT) defined as (K1/k2)(k3/k4 + 1) by the two tissue compartment (2TC) model and Logan graphical analysis (GA) was calculated with the metabolite corrected plasma radioactivity as the input function. […] The procedure has been described in detail in a previous publication on [^11C]AZD9272 binding.[33]

`N#Cc1cc(F)cc(-c2nc(-c3ccc([18F])cn3)no2)c1` [^18F-AZD9272, 3-fluoro-5-(3-(5-[^18F]fluoropyridin-2-yl)-1,2,4-oxadiazol-5-yl)benzonitrile] gave a VT (ACC anterior cingulate cortex, 2TC, NHP1) of 11.5 mL/cm^3, a VT (ACC anterior cingulate cortex, 2TC, NHP2) of 11.2 mL/cm^3 and a VT (ACC anterior cingulate cortex, 2TC, mean) of 11.4 mL/cm^3. It also gave a VT (ACC anterior cingulate cortex, GA, NHP1) of 10.2 mL/cm^3, a VT (ACC anterior cingulate cortex, GA, NHP2) of 10.7 mL/cm^3 and a VT (ACC anterior cingulate cortex, GA, mean) of 10.4 mL/cm^3. It also gave a VT (AMG amygdala, 2TC, NHP1) of 15.0 mL/cm^3, a VT (AMG amygdala, 2TC, NHP2) of 14.4 mL/cm^3 and a VT (AMG amygdala, 2TC, mean) of 14.7 mL/cm^3. For the same compound, the VT (AMG amygdala, GA, NHP1) was 12.8 mL/cm^3, the VT (AMG amygdala, GA, NHP2) was 13.1 mL/cm^3 and the VT (AMG amygdala, GA, mean) was 13.0 mL/cm^3. For the same compound, the VT (CAU caudate, 2TC, NHP1) was 13.3 mL/cm^3, the VT (CAU caudate, 2TC, NHP2) was 13.7 mL/cm^3 and the VT (CAU caudate, 2TC, mean) was 13.5 mL/cm^3. The VT (CAU caudate, GA, NHP1) was 12.1 mL/cm^3, the VT (CAU caudate, GA, NHP2) was 13.0 mL/cm^3 and the VT (CAU caudate, GA, mean) was 12.6 mL/cm^3. The VT (CER cerebellum, 2TC, NHP1) was 7.1 mL/cm^3, the VT (CER cerebellum, 2TC, NHP2) was 7.9 mL/cm^3 and the VT (CER cerebellum, 2TC, mean) was 7.5 mL/cm^3. It also gave a VT (CER cerebellum, GA, NHP1) of 6.6 mL/cm^3, a VT (CER cerebellum, GA, NHP2) of 7.6 mL/cm^3 and a VT (CER cerebellum, GA, mean) of 7.1 mL/cm^3. It also gave a VT (HIP hippocampus, 2TC, NHP1) of 10.7 mL/cm^3, a VT (HIP hippocampus, 2TC, NHP2) of 11.9 mL/cm^3 and a VT (HIP hippocampus, 2TC, mean) of 11.3 mL/cm^3. It also gave a VT (HIP hippocampus, GA, NHP1) of 9.7 mL/cm^3, a VT (HIP hippocampus, GA, NHP2) of 11.2 mL/cm^3 and a VT (HIP hippocampus, GA, mean) of 10.5 mL/cm^3. It also gave a VT (INS insular cortex, 2TC, NHP1) of 9.0 mL/cm^3, a VT (INS insular cortex, 2TC, NHP2) of 10.0 mL/cm^3 and a VT (INS insular cortex, 2TC, mean) of 9.5 mL/cm^3. The VT (INS insular cortex, GA, NHP1) was 8.5 mL/cm^3, the VT (INS insular cortex, GA, NHP2) was 9.6 mL/cm^3 and the VT (INS insular cortex, GA, mean) was 9.1 mL/cm^3. The “Regional brain uptake (PET)” value (NHP brain) was “highest in the striatum, lower in the thalamus and frontal cortex, and lowest in the cerebellum and occipital cortex”, the VT (OC occipital cortex, 2TC, NHP1) was 5.4 mL/cm^3 and the VT (OC occipital cortex, 2TC, NHP2) was 6.0 mL/cm^3. The VT (OC occipital cortex, 2TC, mean) was 5.7 mL/cm^3, the VT (OC occipital cortex, GA, NHP1) was 5.5 mL/cm^3 and the VT (OC occipital cortex, GA, NHP2) was 5.7 mL/cm^3. For the same compound, the VT (OC occipital cortex, GA, mean) was 5.6 mL/cm^3, the VT (PFC prefrontal cortex, 2TC, NHP1) was 9.6 mL/cm^3 and the VT (PFC prefrontal cortex, 2TC, NHP2) was 9.5 mL/cm^3. The VT (PFC prefrontal cortex, 2TC, mean) was 9.5 mL/cm^3, the VT (PFC prefrontal cortex, GA, NHP1) was 8.9 mL/cm^3 and the VT (PFC prefrontal cortex, GA, NHP2) was 9.3 mL/cm^3. It also gave a VT (PFC prefrontal cortex, GA, mean) of 9.1 mL/cm^3, a VT (PUT putamen, 2TC, NHP1) of 9.5 mL/cm^3 and a VT (PUT putamen, 2TC, NHP2) of 10.7 mL/cm^3. It also gave a VT (PUT putamen, 2TC, mean) of 10.1 mL/cm^3, a VT (PUT putamen, GA, NHP1) of 9.3 mL/cm^3 and a VT (PUT putamen, GA, NHP2) of 10.1 mL/cm^3. The VT (PUT putamen, GA, mean) was 9.7 mL/cm^3, the VT (TC temporal cortex, 2TC, NHP1) was 7.6 mL/cm^3 and the VT (TC temporal cortex, 2TC, NHP2) was 8.4 mL/cm^3. The VT (TC temporal cortex, 2TC, mean) was 8.0 mL/cm^3, the VT (TC temporal cortex, GA, NHP1) was 7.2 mL/cm^3 and the VT (TC temporal cortex, GA, NHP2) was 8.1 mL/cm^3. It also gave a VT (TC temporal cortex, GA, mean) of 7.7 mL/cm^3, a VT (THA thalamus, 2TC, NHP1) of 11.7 mL/cm^3 and a VT (THA thalamus, 2TC, NHP2) of 11.4 mL/cm^3. It also gave a VT (THA thalamus, 2TC, mean) of 11.6 mL/cm^3, a VT (THA thalamus, GA, NHP1) of 10.6 mL/cm^3 and a VT (THA thalamus, GA, NHP2) of 10.8 mL/cm^3. The VT (THA thalamus, GA, mean) was 10.7 mL/cm^3, the VT (VM ventral midbrain, 2TC, NHP1) was 11.0 mL/cm^3 and the VT (VM ventral midbrain, 2TC, NHP2) was 8.9 mL/cm^3. It also gave a VT (VM ventral midbrain, 2TC, mean) of 9.9 mL/cm^3, a VT (VM ventral midbrain, GA, NHP1) of 9.1 mL/cm^3 and a VT (VM ventral midbrain, GA, NHP2) of 8.4 mL/cm^3. For the same compound, the VT (VM ventral midbrain, GA, mean) was 8.8 mL/cm^3, the VT (VST ventral striatum, 2TC, NHP1) was 17.3 mL/cm^3 and the VT (VST ventral striatum, 2TC, NHP2) was 17.3 mL/cm^3. It also gave a VT (VST ventral striatum, 2TC, mean) of 17.3 mL/cm^3, a VT (VST ventral striatum, GA, NHP1) of 14.5 mL/cm^3 and a VT (VST ventral striatum, GA, NHP2) of 15.6 mL/cm^3. For the same compound, the VT (VST ventral striatum, GA, mean) was 15.1 mL/cm^3 and the “Maximum whole brain radioactivity concentration” value (two cynomolgus monkeys (n = 2), i.v.) was 4.9–6.7 % of the injected dose.
